Measurements: ChEMBL document CHEMBL4390701, “Discovery of 5-(5-fluoro-1H-pyrrolo[2,3-b]pyridin-3-yl)pyrazin-2(1H)-one derivatives as new potent PB2 inhibitors” (Bioorg Med Chem Lett, 2019)

Key:
[1] = Binding affinity to influenza virus PB2 transformed into Escherichia coli rosseta competent cells by surface plasmon resonance analysis; set-up: species or system unidentified influenza virus
[2] = Binding affinity to influenza virus PB2 transformed into Escherichia coli rosseta competent cells by isothermal titration calorimetry; set-up: species or system unidentified influenza virus
[3] = system: Influenza A virus; experiment: Antiviral activity against Influenza A virus (A/PR/8/34 (H1N1)) infected in MDCK cells assessed as reduction in viral replication preincubated for 1 hr followed by compound washout and measured after 48 hrs; type: functional, organism-based, A/Puerto Rico/8/1934(H1N1)
[4] = Cytotoxicity against MDCK cells assessed as reduction in cell viability measured after 72 hrs by alamar blue assay; type: cell-based, Canis lupus familiaris; conditions: dog
[5] = system: unidentified influenza virus; experiment: Binding affinity to influenza virus PB2 transformed into Escherichia coli rosseta competent cells assessed as binding constant by isothermal titration calorimetry
[6] = Influenza A virus, A/Puerto Rico/8/1934(H1N1), MDCK

C[C@H](Nc1nc(-c2c[nH]c3ncc(F)cc23)cn(C)c1=O)c1cccc(F)c1
Kd [1]: 25700 nM

O=C(O)[C@H]1C2CCC(CC2)[C@@H]1Nc1nc(-c2c[nH]c3ncc(F)cc23)cn(Cc2cccc(C(F)(F)F)c2)c1=O
Kd [1]: 2130 nM

CC1CCCCC1Nc1nc(-c2c[nH]c3ncc(F)cc23)cn(C)c1=O (stereo not given)
Kd [1]: 5230 nM

O=C(O)[C@H]1C2CCC(CC2)[C@@H]1Nc1nc(-c2c[nH]c3ncc(F)cc23)cn(C2CCC2)c1=O
Kd [1]: 470 nM

CCn1cc(-c2c[nH]c3ncc(F)cc23)nc(N[C@H]2C3CCC(CC3)[C@@H]2C(=O)O)c1=O
Kd [1]: 110 nM | Kd [2]: 190 nM | EC50 [3, 6]: 1020 nM | CC50 at 72 h [4]: > 100000 nM | K [5]: 5.19 ×10⁶ /M

COc1ccc(-n2cc(-c3c[nH]c4ncc(F)cc34)nc(N[C@H]3C4CCC(CC4)[C@@H]3C(=O)O)c2=O)cc1
Kd [1]: 3930 nM

O=C(O)[C@H]1C2CCC(CC2)[C@@H]1Nc1nc(-c2c[nH]c3ncc(F)cc23)cn(-c2ccc(F)c(F)c2)c1=O
Kd [1]: 5330 nM

O=C(O)[C@H]1C2CCC(CC2)[C@@H]1Nc1nc(-c2c[nH]c3ncc(F)cc23)cn(Cc2cccs2)c1=O
Kd [1]: 1040 nM

O=C(O)[C@H]1C2CCC(CC2)[C@@H]1Nc1nc(-c2c[nH]c3ncc(F)cc23)cn(CC(F)F)c1=O
Kd [1]: 160 nM

Cn1cc(-c2c[nH]c3ncc(F)cc23)nc(NCCc2cccs2)c1=O
Kd [1]: > 50000 nM

NC(=O)c1ncn([C@@H]2O[C@H](CO)[C@@H](O)[C@H]2O)n1 [RIBAVIRIN]
EC50 [3]: 9120 nM | CC50 at 72 h [4]: > 100000 nM

O=C(O)[C@H]1C2CCC(CC2)[C@@H]1Nc1nc(-c2c[nH]c3ncc(F)cc23)cn(C2CCCC2)c1=O
Kd [1]: 490 nM

Cn1cc(-c2c[nH]c3ncc(F)cc23)nc(N[C@H]2C3CCC(CC3)[C@@H]2C(=O)O)c1=O
Kd [1]: 270 nM

CC(C)C(CC(=O)O)Nc1nc(-c2c[nH]c3ncc(F)cc23)cn(C)c1=O (stereo not given)
Kd [1]: 3470 nM

O=C(O)[C@H]1C2CCC(CC2)[C@@H]1Nc1nc(-c2c[nH]c3ncc(F)cc23)cn(CC(F)(F)F)c1=O
Kd [1]: 170 nM

CC(C)(C)C1CCC(n2cc(-c3c[nH]c4ncc(F)cc34)nc(N[C@H]3C4CCC(CC4)[C@@H]3C(=O)O)c2=O)CC1 (stereo not given in full)
Kd [1]: 16300 nM

O=C(O)[C@H]1C2CCC(CC2)[C@@H]1Nc1nc(-c2c[nH]c3ncc(F)cc23)cn(-c2ccccc2)c1=O
Kd [1]: 1000 nM

Cn1cc(-c2c[nH]c3ncc(F)cc23)nc(NCCCN2CCOCC2)c1=O
Kd [1]: > 50000 nM

CCCn1cc(-c2c[nH]c3ncc(F)cc23)nc(N[C@H]2C3CCC(CC3)[C@@H]2C(=O)O)c1=O
Kd [1]: 320 nM

CC[C@H](Nc1nc(-c2c[nH]c3ncc(F)cc23)cn(C)c1=O)c1ccccc1
Kd [1]: 10300 nM

Cc1cc(C)cc(-n2cc(-c3c[nH]c4ncc(F)cc34)nc(N[C@H]3C4CCC(CC4)[C@@H]3C(=O)O)c2=O)c1
Kd [1]: 4900 nM

CCOc1ccc(-n2cc(-c3c[nH]c4ncc(F)cc34)nc(N[C@H]3C4CCC(CC4)[C@@H]3C(=O)O)c2=O)cc1
Kd [1]: 6230 nM

Cn1cc(-c2c[nH]c3ncc(F)cc23)nc(NC23CC4CC(CC(O)(C4)C2)C3)c1=O
Kd [1]: 2050 nM

Cn1cc(-c2c[nH]c3ncc(F)cc23)nc(N[C@@H](Cc2ccccc2)C(N)=O)c1=O
Kd [1]: 22300 nM

CC(C1CC1)n1cc(-c2c[nH]c3ncc(F)cc23)nc(N[C@H]2C3CCC(CC3)[C@@H]2C(=O)O)c1=O (stereo not given in full)
Kd [1]: 530 nM

O=C(O)[C@H]1C2CCC(CC2)[C@@H]1Nc1nc(-c2c[nH]c3ncc(F)cc23)ncc1F [PIMODIVIR]
Kd [1]: 70 nM | Kd [2]: 50 nM | EC50 [3, 6]: 2 nM | CC50 at 72 h [4]: > 100000 nM

Cn1cc(-c2c[nH]c3ncc(F)cc23)nc(NC[C@H]2CCCO2)c1=O
Kd [1]: 8270 nM

O=C(O)[C@H]1C2CCC(CC2)[C@@H]1Nc1nc(-c2c[nH]c3ncc(F)cc23)cn(C2CCCCC2)c1=O
Kd [1]: 740 nM

O=C(O)Cn1cc(-c2c[nH]c3ncc(F)cc23)nc(N[C@H]2C3CCC(CC3)[C@@H]2C(=O)O)c1=O
Kd [1]: 500 nM

O=C(O)[C@H]1C2CCC(CC2)[C@@H]1Nc1nc(-c2c[nH]c3ncc(F)cc23)cn(-c2ccc(C(F)(F)F)cc2)c1=O
Kd [1]: 7150 nM

Cn1cc(-c2c[nH]c3ncc(F)cc23)nc(NC[C@@H]2CCCO2)c1=O
Kd [1]: 10200 nM

O=C(O)[C@H]1C2CCC(CC2)[C@@H]1Nc1nc(-c2c[nH]c3ncc(F)cc23)cn(C2CC2)c1=O
Kd [1]: 320 nM
